Test results published in US12246034B2, “Animal feed supplement and method” (CAN TECHNOLOGIES, INC., priority 2014, dated 2025).
Like-named read-outs stand apart in the source and are kept apart here.

Key:
sows [1] = tested on: sows
Procedure: A field trial was conducted on a commercial farm in Denmark with 650 highly productive Danbred sows (Landrace x Yorkshire) inseminated with a pure line Duroc boar, between Nov. 17, 2014 and Jan. 16, 2015. A total of 139 sows (total number before analyzes) were included in the trial, divided over 3 subsequent sow groups farrowing over a time span of 6 weeks. For all analyzes SAS software (version 9.3, SAS Institute Inc., Cary, N.C.) was used. Sows received a dry meal transition feed (from gestation to lactation), fed from day 111 of gestation till day 5 of lactation, and were allocated to one of the two treatment groups based on parity. […] The total amount of calcium was equal between both experimental treatments. Number born alive (NBA), stillborn and mummies, litter birth weight, as well as back fat of the sows before farrowing (day 110 of gestation) and at weaning (day 24 of lactation) were measured. Litter weights at 24 hours and 3 days after birth were measured as well. On day 3 after birth blood samples were taken from 6 piglets (2 biggest, 2 medium and 2 smallest) from 65 litters of their tails when they were cut and analyzed on immunoglobulin G (IgG) concentration. Placentas of the sows were collected after the farrowing process was finished, stored in freezers and afterwards scored on redness for an indication of the vascularization of these placentas.

sows [2] = conditions: for Probability of a higher Vitality score: scored within 30 seconds after birth; for Average weight at weaning: piglets
Procedure: A trial was conducted at the Sterksel Research farm in the Netherlands (part of Wageningen University Research). A total of 207 sows were used in the trial allocated based on parity over 6 treatments (n=34). […] Calcium levels were the same in all diets.
(§1) Until farrowing, sows received a fixed amount of feed (3.25 kg from day 107-113 and 2.7 kg/sow/day from day 113 till farrowing). During lactation the sows were fed the diets according to a step-up feeding schedule applied (increasing with 0.5 kg/sow/day) the same over the 6 treatments aiming at a peak intake of 7.5 kg/sow/day. Piglets were weaned from the sow at 27 days of age. Performance of sows (e.g. weight, backfat, piglets born alive, stillborn piglets, mortality of piglets) and piglets (e.g. weight at birth, after 48 hours and weaning) was measured on all sows and litters. A subset of sows (19-20 per treatment) was examined more in detail to get insight in the possible mode of action of nitrate. On this subset, blood samples were collected within 4 minutes after birth from 2 piglets out of every 4 piglets born. Blood gasses of umbilical cord blood were analyzed using the i-STAT handheld (Abbott). Vitality of piglets was scored within 30 seconds after birth according to Baxter et al. (2008) with 1 being the lowest and 4 being the highest score for vitality.

[3] = for pCO2 - Measured value / pH / pO2 - Measured value: umbilical cord blood piglets
Excerpt: as §1

[4] = 0.03% nitrate in lactation diet
[5] = 0.06% nitrate in lactation diet
[6] = 0.09% nitrate in lactation diet
[7] = 0.12% nitrate in lactation diet
[8] = 0.15% nitrate in lactation diet
[9] = across 0.03-0.15% nitrate in feed
[10] = across 0.03-0.15% nitrate in lactation diet
[11] = across 0.03-0.15% nitrate, P<0.05

O=[N+]([O-])O [Nitrate, nitrate]
NBA (Number Born Alive) (sows [1]; 0.1% Bolifor CNF in transition feed, LS Means ± SEM): increased | NBD (Number Born Death), stillborn piglets (sows [1]; 0.1% Bolifor CNF in transition feed, log transformed, back-transformed to absolute values): decreased | Colostrum, CI (Colostrum Intake) (sows [1]; 0.1% Bolifor CNF, calculated colostrum intake): No differences were found | Aver. birth weight born alive pigs (sows [2]; [4]): 1308 grams | Average livability % (sows [2]; [4]): 76.1% | Average mortality % (sows [2]; [4]): 16.5% | Average piglet weight after 48 hours (sows [2]; [4]): 1.611 kg | Probability born alive (sows [2]; [4]): 0.95 | Probability livability (sows [2]; [4]): 0.85 | Probability mortality (sows [2]; [4]): 0.10 | Probability weaned (sows [2]; [4]): 0.91 | Total born (sows [2]; [4]): 16.8 | Total born alive (sows [2]; [4]): 15.2 | Total born mummified (sows [2]; [4]): 0.6 | Total still born (sows [2]; [4]): 1.6 | Total weaned (sows [2]; [4]): 12.3 | total birth weight litter life born piglets (sows [2]; [4]): 19.5 kg | total litter weight weaning (sows [2]; [4]): 91.8 kg | Probability of a higher Vitality score (sows [2]; [4]): 0.70 | Aver. birth weight born alive pigs (sows [2]; [5]): 1320 grams | Average livability % (sows [2]; [5]): 78.3% | Average mortality % (sows [2]; [5]): 16.2% | Average piglet weight after 48 hours (sows [2]; [5]): 1.598 kg | Probability born alive (sows [2]; [5]): 0.97 | Probability livability (sows [2]; [5]): 0.86 | Probability mortality (sows [2]; [5]): 0.10 | Probability weaned (sows [2]; [5]): 0.91 | Total born (sows [2]; [5]): 16.8 | Total born alive (sows [2]; [5]): 15.7 | Total born mummified (sows [2]; [5]): 0.7 | Total still born (sows [2]; [5]): 1.1 | Total weaned (sows [2]; [5]): 12.4 | total birth weight litter life born piglets (sows [2]; [5]): 20.3 kg | total litter weight weaning (sows [2]; [5]): 91.8 kg | Probability of a higher Vitality score (sows [2]; [5]): 0.74 | Aver. birth weight born alive pigs (sows [2]; [6]): 1329 grams | Average livability % (sows [2]; [6]): 81.3% | Average mortality % (sows [2]; [6]): 12.7% | Average piglet weight after 48 hours (sows [2]; [6]): 1.621 kg | Probability livability (sows [2]; [6]): 0.89 | Probability mortality (sows [2]; [6]): 0.07 | Probability weaned (sows [2]; [6]): 0.94 | Total born (sows [2]; [6]): 16.1 | Total born mummified (sows [2]; [6]): 0.5 | Total still born (sows [2]; [6]): 1.2 | total birth weight litter life born piglets (sows [2]; [6]): 20.2 kg | total litter weight weaning (sows [2]; [6]): 96.9 kg | Probability of a higher Vitality score (sows [2]; [6]): 0.80 | Aver. birth weight born alive pigs (sows [2]; [7]): 1326 grams | Average livability % (sows [2]; [7]): 80.0% | Average mortality % (sows [2]; [7]): 14.0% | Average piglet weight after 48 hours (sows [2]; [7]): 1.640 kg | Probability born alive (sows [2]; [7]): 0.96 | Probability livability (sows [2]; [7]): 0.88 | Probability mortality (sows [2]; [7]): 0.08 | Probability weaned (sows [2]; [7]): 0.93 | Total born (sows [2]; [7]): 17.1 | Total born alive (sows [2]; [7]): 15.8 | Total born mummified (sows [2]; [7]): 0.5 | Total still born (sows [2]; [7]): 1.3 | Total weaned (sows [2]; [7]): 13.0 | total birth weight litter life born piglets (sows [2]; [7]): 20.8 kg | total litter weight weaning (sows [2]; [7]): 98.6 kg | Probability of a higher Vitality score (sows [2]; [7]): 0.78 | Aver. birth weight born alive pigs (sows [2]; [8]): 1355 grams | Average livability % (sows [2]; [8]): 79.0% | Average mortality % (sows [2]; [8]): 14.8% | Average piglet weight after 48 hours (sows [2]; [8]): 1.692 kg | Probability born alive (sows [2]; [8]): 0.96 | Probability livability (sows [2]; [8]): 0.87 | Probability mortality (sows [2]; [8]): 0.09 | Probability weaned (sows [2]; [8]): 0.92 | Total born (sows [2]; [8]): 16.6 | Total born alive (sows [2]; [8]): 15.3 | Total born mummified (sows [2]; [8]): 0.3 | Total still born (sows [2]; [8]): 1.3 | Total weaned (sows [2]; [8]): 12.6 | total birth weight litter life born piglets (sows [2]; [8]): 21.0 kg | total litter weight weaning (sows [2]; [8]): 96.8 kg | Probability of a higher Vitality score (sows [2]; [8]): 0.79 | Total litter weight at weaning on increasing nitrate addition (sows [2]; [9]): significantly (P<0.05) improved | Vitality score of the piglets on increasing nitrate addition (sows [2]; [9]): significantly (P<0.05) improved | livability, effect of higher nitrate levels (sows [2]; [10]): increase | mortality, effect of higher nitrate levels (sows [2]; [10]): tended to lower | weaned piglets per litter, effect of higher nitrate levels (sows [2]; [10]): more | average piglet birth weight with increasing nitrate levels (sows [2]; [11]): higher | average piglet weight at 48 h with increasing nitrate levels (sows [2]; [11]): higher | total liter birth weight with increasing nitrate levels (sows [2]; [11]): higher | Probability of weaned piglets with increasing nitrate inclusion (sows [2]; across 0.03-0.15% nitrate, P<0.10): improved | Probability born alive (sows [2]; in vivo): 0.96 | Total born alive (sows [2]; in vivo): 14.9 | Total weaned (sows [2]; in vivo): 12.7 | Average weight at weaning (sows [2]; [4]): 7.439 kg | Average weight at weaning (sows [2]; [5]): 7.321 kg | Average weight at weaning (sows [2]; [6]): 7.472 kg | Average weight at weaning (sows [2]; [7]): 7.550 kg | Average weight at weaning (sows [2]; [8]): 7.608 kg | pCO2 - Measured value ([3]; 0.03% nitrate in sow diet): 34.1 mmHg | pH ([3]; 0.03% nitrate in sow diet): 7.5 | pO2 - Measured value ([3]; 0.03% nitrate in sow diet): 33.8 mmHg | pCO2 - Measured value ([3]; 0.06% nitrate in sow diet): 34.5 mmHg | pH ([3]; 0.06% nitrate in sow diet): 7.5 | pO2 - Measured value ([3]; 0.06% nitrate in sow diet): 35.4 mmHg | pCO2 - Measured value ([3]; 0.09% nitrate in sow diet): 34.9 mmHg | pH ([3]; 0.09% nitrate in sow diet): 7.5 | pO2 - Measured value ([3]; 0.09% nitrate in sow diet): 34.5 mmHg | pCO2 - Measured value ([3]; 0.12% nitrate in sow diet): 34.5 mmHg | pH ([3]; 0.12% nitrate in sow diet): 7.5 | pO2 - Measured value ([3]; 0.12% nitrate in sow diet): 35.6 mmHg | pCO2 - Measured value ([3]; 0.15% nitrate in sow diet): 34.8 mmHg | pH ([3]; 0.15% nitrate in sow diet): 7.5 | pO2 - Measured value ([3]; 0.15% nitrate in sow diet): 35.3 mmHg | pO2 values with increasing nitrate addition ([3]; umbilical cord blood, across 0.03-0.15% nitrate): linearly improved
